Data as given in US10493077B2, “Fused imidazo-piperidine JAK inhibitor compound” (THERAVANCE BIOPHARMA R&D IP, LLC, priority 2017, dated 2019).

Legend:
VEGFR2 = target: T1, VEGFR2 (Homo sapiens, UniProt P35968); experiment: Kinome screen, VEGFR2; format: binding; conditions: screened at 1 μM
T1 construct: made in house; host or cells: T7 phage in E. coli (BL21-derived) or HEK-293
Experimental: (§1) Kinase-tagged T7 phage strains were grown in parallel in 24-well blocks in an E. coli host derived from the BL21 strain. E. coli were grown to log-phase and infected with T7 phage from a frozen stock (multiplicity of infection=0.4) and incubated with shaking at 32° C. until lysis (90-150 minutes). The lysates were centrifuged (6,000×g) and filtered (0.2 μm) to remove cell debris. The remaining kinases were produced in HEK-293 cells and subsequently tagged with DNA for qPCR detection.
(§2) Streptavidin-coated magnetic beads were treated with biotinylated small molecule ligands for 30 minutes at room temperature to generate affinity resins for kinase assays. The liganded beads were blocked with excess biotin and washed with blocking buffer (SeaBlock (Pierce), 1% BSA, 0.05% Tween 20, 1 mM DTT) to remove unbound ligand and to reduce non-specific phage binding. […] Test compounds were prepared as 40× stocks in 100% DMSO and directly diluted into the assay. All reactions were performed in polypropylene 384-well plates in a final volume of 0.04 ml. […] The beads were then re-suspended in elution buffer (1×PBS, 0.05% Tween 20, 0.5 μM non-biotinylated affinity ligand) and incubated at room temperature with shaking for 30 minutes. The kinase concentration in the eluates was measured by qPCR.

[1] = system: BEAS-2B human lung epithelial cells; experiment: CellTiter-Glo cell viability/cytotoxicity assay; format: cell-based; conditions: BEAS-2B cells, 48 h, concentration at 15% inhibition threshold
Experimental: A CellTiter-Glo luminescent cell viability/cytotoxicity assay was carried out in BEAS-2B human lung epithelial cells (ATCC) under the normal growth condition.
Cells were grown at 37° C. in a 5% CO2 humidified incubator in 50% DMEM/50% F-12 medium (Life Technologies) supplemented with 10% FBS (Hyclone), 100 U/mL penicillin, 100 μg/mL streptomycin (Life Technologies), and 2 mM GlutaMAX (Life Technologies). On day 1 of the assay, cells were seeded at a 500 cells/well density in white 384-well tissue culture plates (Corning) with 25 μL medium, and were allowed to adhere overnight in the incubator. On day 2 of the assay, 5 μL of medium containing dose-responses of test compounds was added, and incubated at 37° C. for 48 h. 30 μL of CellTiter-Glo detection solution (Promega) was subsequently added, mixed on an orbital shaker for 5 min, and incubated for additional 10 min before being read on the EnVision reader. Luminescence signals were recorded and percent DMSO control values were calculated.
For dose-response analysis, percent DMSO control data were plotted vs. compound concentrations to derive dose-response curves by line connecting each data point. The concentration at which each curve crosses the 15% inhibition threshold is defined as CC15.

[2] = system: IL-6 stimulated CCL2 (MCP-1) in human PBMCs; experiment: Cellular JAK potency assay: inhibition of IL-6 stimulated CCL2 (MCP-1) in human PBMCs; format: cell-based; conditions: PBMC, 48 h stimulation, read-out: pIC50, inhibition of IL-6 stimulated CCL2 (MCP-1) (converted)
Experimental: The potency of the test compound for inhibition of interleukin-6 (IL-6) stimulated CCL2 (MCP-1) production was measured in human peripheral blood mononuclear cells (PBMCs) isolated from human whole blood (Stanford Blood Center). Because IL-6 signals through JAK, this assay provides a distal measure of JAK cellular potency.
(1) The protocol of Assay 3 paragraph (1) was followed up to the incubation with test compounds. In the present assay, after test compounds were added to wells and incubated, IL-6 (R&D Systems; final concentration 10 ng/ml) in pre-warmed assay media (50 μL) was added.
(2) After cytokine stimulation for 48 h, cells were centrifuged at 500 g for 5 min and supernatants were removed and frozen at −80° C. To determine the inhibitory potency of the test compound in response to IL-6, supernatant CCL2 (MCP-1) concentrations were measured via ELISA (R&D Systems). IC50 values were determined from analysis of the inhibition curves of concentration of CCL2/MCP-1 vs compound concentration. Data are expressed as pIC50 (negative decadic logarithm IC50) values.

CDK2 = target: T2, CDK2 (Homo sapiens, UniProt P24941); experiment: Kinome screen, CDK2; format: binding; conditions: screened at 1 μM
T2 construct: made in house; host or cells: T7 phage in E. coli (BL21-derived) or HEK-293
Experimental: as §1, §2

IL-6 induced pSTAT3 = experiment: Pharmacodynamic assay: inhibition of IL6-induced pSTAT3 in rats; format: in vivo, rat; conditions: 50 μg intravitreal, suspension formulation, 3 day pre-treatment prior to IL-6 challenge, female Lewis rats
Experimental: The ability of a single intravitreal administration of test compound to inhibit IL-6 induced pSTAT3 was measured in rat retina/choroid homogenates.
A suspension formulation was prepared by combining compound 1 of Example 2, with 0.5% hydroxypropyl methylcellulose (HPMC E5 LV), 0.02% Tween 80, and 9 mg/mL sodium chloride in purified water to attain a target concentration of 10 mg/mL.
Female Lewis rats were intravitreally (IVT) dosed (5 μL per eye) with the suspension formulation. Three days later, IL-6 (Peprotech; 0.1 mg/mL; 5 μL per eye) or vehicle was intravitreally administered to induce pSTAT3. Ocular tissues were dissected one hour after the second IVT injection with IL-6. The retina/choroid tissues were homogenized and pSTAT3 levels were measured using an ELISA (Cell Signaling Technology). The percent inhibition of IL-6-induced pSTAT3 was calculated in comparison to the vehicle/vehicle and vehicle/IL-6 groups. Inhibition of greater than 100% reflects a reduction of pSTAT3 levels to below those observed in the vehicle/vehicle group.

SYK = target: T3, SYK (Homo sapiens, UniProt P43405); experiment: Kinome screen, SYK; format: binding; conditions: screened at 1 μM
T3 construct: made in house; host or cells: T7 phage in E. coli (BL21-derived) or HEK-293
Experimental: as §1, §2

T1 sequence (P35968 20-1356): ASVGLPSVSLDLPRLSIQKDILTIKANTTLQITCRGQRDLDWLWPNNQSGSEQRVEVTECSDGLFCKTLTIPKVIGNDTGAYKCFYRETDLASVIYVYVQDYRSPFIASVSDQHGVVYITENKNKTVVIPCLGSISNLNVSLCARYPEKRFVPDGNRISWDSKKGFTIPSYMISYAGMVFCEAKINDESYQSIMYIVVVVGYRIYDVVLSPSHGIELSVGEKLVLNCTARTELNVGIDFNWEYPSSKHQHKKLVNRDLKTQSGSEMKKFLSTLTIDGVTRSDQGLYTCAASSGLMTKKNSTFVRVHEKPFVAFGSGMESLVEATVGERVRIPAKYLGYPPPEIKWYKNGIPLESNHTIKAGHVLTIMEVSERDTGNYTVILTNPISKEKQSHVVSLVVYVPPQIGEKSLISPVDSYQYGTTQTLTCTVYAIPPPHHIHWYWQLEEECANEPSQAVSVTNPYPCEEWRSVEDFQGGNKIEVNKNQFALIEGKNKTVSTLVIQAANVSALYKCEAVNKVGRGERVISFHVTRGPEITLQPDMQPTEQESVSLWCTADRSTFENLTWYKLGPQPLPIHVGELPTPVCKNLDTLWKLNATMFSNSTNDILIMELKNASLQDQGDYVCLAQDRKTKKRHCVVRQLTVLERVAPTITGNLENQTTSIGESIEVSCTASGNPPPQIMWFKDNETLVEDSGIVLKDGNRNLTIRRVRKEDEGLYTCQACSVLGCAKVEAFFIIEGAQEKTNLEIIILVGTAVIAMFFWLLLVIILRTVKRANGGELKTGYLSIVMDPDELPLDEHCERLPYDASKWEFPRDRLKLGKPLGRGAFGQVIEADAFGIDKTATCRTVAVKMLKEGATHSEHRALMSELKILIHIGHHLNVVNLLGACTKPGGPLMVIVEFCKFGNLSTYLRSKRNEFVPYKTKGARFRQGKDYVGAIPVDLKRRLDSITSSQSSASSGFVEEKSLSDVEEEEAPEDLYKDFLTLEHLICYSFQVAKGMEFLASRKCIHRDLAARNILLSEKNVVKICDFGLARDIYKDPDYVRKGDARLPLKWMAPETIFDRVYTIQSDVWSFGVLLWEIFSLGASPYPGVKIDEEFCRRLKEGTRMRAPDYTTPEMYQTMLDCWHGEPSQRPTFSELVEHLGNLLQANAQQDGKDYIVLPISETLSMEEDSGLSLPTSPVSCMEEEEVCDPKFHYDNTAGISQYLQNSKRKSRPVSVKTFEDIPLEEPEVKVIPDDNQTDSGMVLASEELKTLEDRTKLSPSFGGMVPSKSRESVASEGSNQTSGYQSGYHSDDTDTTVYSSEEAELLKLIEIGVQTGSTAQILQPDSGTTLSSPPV

CCc1cc(O)c(F)cc1-c1cc(F)c2c(-c3nc4c([nH]3)CCN(C(=O)CN3CCOCC3)C4)n[nH]c2c1 [Compound 1, 1-(2-(6-(2-ethyl-5-fluoro-4-hydroxyphenyl)-4-fluoro-1H-indazol-3-yl)-1,4,6,7-tetrahydro-5H-imidazo[4,5-c]pyridin-5-yl)-2-morpholinoethan-1-one]
inhibition at 1 µM (VEGFR2): 42%
CC15 [1]: 3.16 µM
IC50 [2]: ~398 nM
inhibition at 1 µM (CDK2): 6%
inhibition of IL-6-induced pSTAT3 in retina/choroid tissues (IL-6 induced pSTAT3): 116%
inhibition at 1 µM (SYK): 46%
